Experimental data as given in US20090181075A1, “DROSPIRENONE CONTAINING TRANSDERMAL DRUG DELIVERY DEVICES AND METHODS OF DELIVERY THEREOF” (priority 2005, published 2009).

Experiment: Drospirenone solubility in liquid excipients
Assay type: physicochemical
Settings: weight-weight basis
Protocol: The solubility of drospirenone in liquid excipients was obtained using the following test method. Drospirenone was incrementally added to excipient until it stopped dissolving. The saturated solution was then filtered through a 0.45 μm polytetrafluoroethylene filter to remove excess drug particles. The concentration of drospirenone was then analyzed for drug using conventional high performance liquid chromatography methods. The values are reported as the percent solubility on a weight-weight basis.

## C[C@]12CCC(=O)C=C1[C@@H]1C[C@@H]1[C@H]1[C@@H]3[C@@H]4C[C@@H]4[C@@]4(CCC(=O)O4)[C@@]3(C)CC[C@@H]12 [drospirenone, 6β,7β,15β,16β-dimethylene-3-oxo-17α-pregn-4-ene-21,17-carbolactone]
In benzyl alcohol
  solubility of drospirenone: 44.4%
In benzyl lactate
  solubility of drospirenone: 22.6%
In glyceryl monooleate
  solubility of drospirenone: 2.0%
In lauryl alcohol
  solubility of drospirenone: 1.0%
In lauryl lactate
  solubility of drospirenone: 1.4%
In methyl lactate
  solubility of drospirenone: 11.6%
In methyl laurate
  solubility of drospirenone: 0.6%
